Reference: US20070254907A1, “COMPOSITIONS AND METHODS FOR CONTROLLING INFESTATION” (HATCHTECH PTY LTD, priority 2003, published 2007)
“Also recorded” adds a separate entry of the source. Like-named read-outs stand apart in the source and are kept apart here.

Assays:
Plutella xylostella eggs [1] = assay: whole plant or invertebrate; format: in vivo
Procedure: The ovicidal efficacy of 2-acetyl-1-tetralone was also tested against Plutella eggs.

lice eggs = assay: whole plant or invertebrate; format: in vivo; details: for H (number of eggs successfully hatched) / Ph (number of eggs partly hatched): per replicate, concentration not given
[2] = test system: Helicoverpa armigera eggs; assay: Egg hatching of Helicoverpa armigera
Procedure: A range of concentrations were made up in water and the eggs placed in the solutions for approximately 2-10 seconds. The eggs which had been laid on cloth were then blotted dry and placed in an incubator at 26° C. for 3-4 days until hatch. Hatch rates were then assessed compared to a water only treated control (FIG. 5).
The compound was dissolved in 100% diethoxyglycol and diluted to a final concentration of 1% in water.
Several hundred Helicoverpa armigera eggs (Tatura×Toowoomba strains) were collected, that had been laid on fine mesh cloth over a 24 hour period.
Batches of Helicoverpa eggs were exposed to a specific inhibitor solution for between 2-10 seconds the excess solution drained by blotting with dry tissue paper. The egg masses were then placed in a humid box at 25 degrees until egg hatch. Control eggs were exposed to absolute methanol as described above. At day 6 post laying the eggs were assessed from the different treatments and the percentage of egg hatch determined relative to the control as shown in Table 12.
Batches of Helicoverpa eggs were then exposed to a specific inhibitor solution for between 2-10 seconds the excess solution drained by blotting with dry tissue paper. The egg masses were then placed in a humid box at 25° C. until egg hatch. Control eggs were exposed to absolute methanol as described above. At day 6 post laying the eggs were assessed from the different treatments and the percentage of egg hatch determined relative to the control as shown in Table 13.

[3] = test system: Lice (L) and Plutella (P) eggs; details: Lice (L) and Plutella (P)
Plutella xylostella eggs [4] = assay: Reversal of inhibition of Plutella egg hatching by added FeSO4; format: in vivo
Procedure: (§1) Within 24 hours of collection the following experimental design was chosen. Batches of eggs were exposed to 10 mM 6,6′-dimethyl-2,2′-dipyridyl for 2 seconds while additional batches of eggs were exposed to the solvent only (Methanol) for 2 seconds. All batches of eggs were allowed to air dry for 20 minutes at room temperature. The eggs were then given a 2 second exposure to FeSO4 at either 10, 5 or 1 mM, air dried and put in the incubator at 24° C. and allowed to hatch over the next 6 days. In addition, a positive control of 10 mM 6,6′-dimethyl-2,2′-dipyridyl was set up in which eggs were exposed to this compound for 2 seconds, air dried and placed in the incubator.
as §1, with “10 mM 5,5′-dimethyl-2,2′-dipyridyl for 2” for “10 mM 6,6′-dimethyl-2,2′-dipyridyl for 2”, “FeSO4 at 10, 5” for “FeSO4 at either 10, 5”, “put in an incubator at” for “put in the incubator at”, “of 10 mM, 5,5′-dimethyl-2,2′-dipyridyl was set” for “of 10 mM 6,6′-dimethyl-2,2′-dipyridyl was set”

B. ovis eggs = assay: Egg hatching in Bovicola ovis; format: in vivo; details: 10 mM; for Number hatched in different replicates: 10 eggs per replicate; for % Inhibition: in comparison to the controls; for Number unhatched: per replicate
Procedure: B. ovis eggs were collected from the wool of sheep that were infested with this parasite. The eggs were collected using forceps and with the aid of a dissecting microscope and placed in 24 well tissue culture plates in duplicate lots of 10 eggs per replicate. The eggs were then exposed to either methanol alone (control) or the test compounds for either 10 minutes or 1 minute before being removed from the wells and placed into individual glass vials containing a diet at the base of the tube. The tubes were placed in plastic containers containing a salt solution (to keep humidity constant at 68%) and the containers maintained at a temperature 32° C. The eggs were monitored for hatching over the following 12 days and % hatch inhibition determined in comparison to the controls.

[5] = 10 and 1 mM, listed as 6,6′dimethyl-2,2′dipyridyl
[6] = Table 9, 0.001 mM, dipped 2-10 s, day 6 post laying
[7] = Table 9, 0.01 mM, dipped 2-10 s, day 6 post laying
[8] = Table 9, 0.1 mM, dipped 2-10 s, day 6 post laying
[9] = Table 9, 1 mM, dipped 2-10 s, day 6 post laying
[10] = Table 9, 10 mM, dipped 2-10 s, day 6 post laying
[11] = Table 10, eggs laid on cloth, 0.01 mM
[12] = Table 10, eggs laid on cloth, 0.1 mM
[13] = Table 10, eggs laid on cloth, 1 mM
[14] = Table 10, eggs laid on cloth, 10 mM
[15] = Table 11, eggs laid on parafilm, 0.01 mM
[16] = Table 11, eggs laid on parafilm, 0.1 mM
[17] = Table 11, eggs laid on parafilm, 1 mM
[18] = Table 11, eggs laid on parafilm, 10 mM
[19] = 10 mM chelator followed by 2 second exposure to 1 mM FeSO4
[20] = 10 mM chelator followed by 2 second exposure to 5 mM FeSO4
[21] = 10 mM chelator followed by 2 second exposure to 10 mM FeSO4
[22] = 10 mM chelator followed by 2 second exposure to MEOH
[23] = 10 mM chelator, 2 s, (+ve) control without second exposure

Cc1cccc(-c2cccc(C)n2)n1 [6,6′-dimethyl-2,2′-dipyridyl]
effect on egg hatching of Plutella xylostella (words) (Plutella xylostella eggs [1]; 0.1 and 0.01 mM): no observable effects on egg hatching
effect on egg hatching of Plutella xylostella (words) (Plutella xylostella eggs [1]; 10 and 1 mM, listed as 6,6′-dimethyl-2,2′dipyridyl): effective at inhibiting egg hatching
effect on egg hatching of Plutella xylostella (words) (Plutella xylostella eggs [1]; [5]): strong ovicidal effects
Ovicidal activity % (Plutella xylostella eggs [1]; Plutella (P), 1 mM): 100.00%
Activity class 0 = inactive 1 = low 2 = med 3 = high (Plutella xylostella eggs [1]; Plutella (P), listed as of 1 mM): 2 (a pLD50 value between 3 and 4 is considered moderately active (Class 2))
Number hatched (Plutella xylostella eggs [1]; [6]): 11
Number unhatched (Plutella xylostella eggs [1]; [6]): 6
% Inhibition (Plutella xylostella eggs [1]; Table 9, 0.001 mM, relative to control (100% MeOH)): 0%
Number hatched (Plutella xylostella eggs [1]; [7]): 13
Number unhatched (Plutella xylostella eggs [1]; [7]): 7
% Inhibition (Plutella xylostella eggs [1]; Table 9, 0.01 mM, relative to control (100% MeOH)): 0%
Number hatched (Plutella xylostella eggs [1]; [8]): 23
Number unhatched (Plutella xylostella eggs [1]; [8]): 29
% Inhibition (Plutella xylostella eggs [1]; Table 9, 0.1 mM, relative to control (100% MeOH)): 0%
Number hatched (Plutella xylostella eggs [1]; [9]): 0
Number unhatched (Plutella xylostella eggs [1]; [9]): 26
% Inhibition (Plutella xylostella eggs [1]; Table 9, 1 mM, relative to control (100% MeOH)): 100%
Number hatched (Plutella xylostella eggs [1]; [10]): 0
Number unhatched (Plutella xylostella eggs [1]; [10]): 79
% Inhibition (Plutella xylostella eggs [1]; Table 9, 10 mM, relative to control (100% MeOH)): 100%
Number hatched (Plutella xylostella eggs [1]; [11]): 23
Number unhatched (Plutella xylostella eggs [1]; [11]): 4
% Inhibition (Plutella xylostella eggs [1]; Table 10, eggs laid on cloth, 0.01 mM, relative to controls): 12%
Number hatched (Plutella xylostella eggs [1]; [12]): 49
Number unhatched (Plutella xylostella eggs [1]; [12]): 0
% Inhibition (Plutella xylostella eggs [1]; Table 10, eggs laid on cloth, 0.1 mM, relative to controls): 0%
Number hatched (Plutella xylostella eggs [1]; [13]): 0
Number unhatched (Plutella xylostella eggs [1]; [13]): 23
% Inhibition (Plutella xylostella eggs [1]; Table 10, eggs laid on cloth, 1 mM, relative to controls): 100%
Number hatched (Plutella xylostella eggs [1]; [14]): 0
Number unhatched (Plutella xylostella eggs [1]; [14]): 53
% Inhibition (Plutella xylostella eggs [1]; Table 10, eggs laid on cloth, 10 mM, relative to controls): 100%
Number hatched (Plutella xylostella eggs [1]; [15]): 92
Number unhatched (Plutella xylostella eggs [1]; [15]): 1
% Inhibition (Plutella xylostella eggs [1]; Table 11, eggs laid on parafilm, 0.01 mM, relative to controls): 0%
Number hatched (Plutella xylostella eggs [1]; [16]): 65
Number unhatched (Plutella xylostella eggs [1]; [16]): 11
% Inhibition (Plutella xylostella eggs [1]; Table 11, eggs laid on parafilm, 0.1 mM, relative to controls): 7%
Number hatched (Plutella xylostella eggs [1]; [17]): 0
Number unhatched (Plutella xylostella eggs [1]; [17]): 63
% Inhibition (Plutella xylostella eggs [1]; Table 11, eggs laid on parafilm, 1 mM, relative to controls): 100%
Number hatched (Plutella xylostella eggs [1]; [18]): 0
Number unhatched (Plutella xylostella eggs [1]; [18]): 106
% Inhibition (Plutella xylostella eggs [1]; Table 11, eggs laid on parafilm, 10 mM, relative to controls): 100%
lice egg hatching (lice eggs; all time points examined (24-120 hr post egg laying)): completely inhibited
H (number of eggs successfully hatched) (lice eggs; treated 24 hr post egg laying): 0
Ph (number of eggs partly hatched) (lice eggs; treated 24 hr post egg laying): 0
H (number of eggs successfully hatched) (lice eggs; treated 48 hr post egg laying): 0
Ph (number of eggs partly hatched) (lice eggs; treated 48 hr post egg laying): 0
H (number of eggs successfully hatched) (lice eggs; treated 72 hr post egg laying): 0
Ph (number of eggs partly hatched) (lice eggs; treated 72 hr post egg laying): 0
H (number of eggs successfully hatched) (lice eggs; treated 96 hr post egg laying): 0
Ph (number of eggs partly hatched) (lice eggs; treated 96 hr post egg laying): 0
H (number of eggs successfully hatched) (lice eggs; treated 120 hr post egg laying): 0
Ph (number of eggs partly hatched) (lice eggs; treated 120 hr post egg laying): 0
effect on egg hatching of Helicoverpa armigera (words) ([2]; 0.1 mM): no inhibition of egg hatching was observed
effect on egg hatching of Helicoverpa armigera (words) ([2]; 10 and 1 mM): significantly inhibit the egg hatching
effect on egg hatching of Helicoverpa armigera (words) [2, 5]: significantly inhibit egg hatching
% Inhibition ([2]; Table 12, 0.001 mM, relative to control (100% MeOH)): 0%
% Inhibition ([2]; Table 12, 0.01 mM, relative to control (100% MeOH)): 0%
% Inhibition ([2]; Table 12, 0.1 mM, relative to control (100% MeOH)): 0%
Number hatched ([2]; Table 12, 1 mM): 4
Number unhatched ([2]; Table 12, 1 mM): 140
% Inhibition ([2]; Table 12, 1 mM, relative to control (100% MeOH)): 97%
Number hatched ([2]; Table 12, 10 mM): 7
Number unhatched ([2]; Table 12, 10 mM): 98
% Inhibition ([2]; Table 12, 10 mM, relative to control (100% MeOH)): 94%
Number hatched ([2]; Table 13, 0.1 mM): 70
Number unhatched ([2]; Table 13, 0.1 mM): 0
% Inhibition ([2]; Table 13, 0.1 mM, relative to the control (100% MeOH)): 0%
Number hatched ([2]; Table 13, 1 mM): 2
Number unhatched ([2]; Table 13, 1 mM): 61
% Inhibition ([2]; Table 13, 1 mM, relative to the control (100% MeOH)): 97%
Number hatched ([2]; Table 13, 10 mM): 3
Number unhatched ([2]; Table 13, 10 mM): 48
% Inhibition ([2]; Table 13, 10 mM, relative to the control (100% MeOH)): 94%
effect on egg hatching of Helicoverpa armigera (words) ([2]; concentrations below 1 mM): No inhibition was recorded
Ovicidal activity % ([3]; 0.1 mM): 0.00%
Ovicidal activity % ([3]; 10 mM): 100.00%
Activity class 0 = inactive 1 = low 2 = med 3 = high ([3]; listed as of 0.1 mM): 2 (a pLD50 value between 3 and 4 is considered moderately active (Class 2))
Activity class 0 = inactive 1 = low 2 = med 3 = high ([3]; listed as of 10 mM): 2 (a pLD50 value between 3 and 4 is considered moderately active (Class 2))
Number hatched (Plutella xylostella eggs [4]; [19]): 33
Number unhatched (Plutella xylostella eggs [4]; [19]): 1
% Inhibition (Plutella xylostella eggs [4]; 10 mM chelator followed by 2 second exposure to 1 mM FeSO4, relative to FeSO4 controls): 3%
Number hatched (Plutella xylostella eggs [4]; [20]): 25
Number unhatched (Plutella xylostella eggs [4]; [20]): 0
% Inhibition (Plutella xylostella eggs [4]; 10 mM chelator followed by 2 second exposure to 5 mM FeSO4, relative to FeSO4 controls): 0%
Number hatched (Plutella xylostella eggs [4]; [21]): 12
Number unhatched (Plutella xylostella eggs [4]; [21]): 19
% Inhibition (Plutella xylostella eggs [4]; 10 mM chelator followed by 2 second exposure to 10 mM FeSO4, relative to FeSO4 controls): 38%
% Inhibition (Plutella xylostella eggs [4]; [22]): 90%
Number hatched (Plutella xylostella eggs [4]; [22]): 3
Number unhatched (Plutella xylostella eggs [4]; [22]): 28
% Inhibition (Plutella xylostella eggs [4]; [23]): 100%
Number hatched (Plutella xylostella eggs [4]; [23]): 0
Number unhatched (Plutella xylostella eggs [4]; [23]): 44
effect of added Fe in FeSO4 on the chelator's inhibition of egg hatching (Plutella xylostella eggs [4]; 10 mM chelator, then FeSO4 10, 5 or 1 mM): able to reverse the effects
inhibition of egg hatching after MeOH alone post exposure (Plutella xylostella eggs [4]; 10 mM chelator, then MeOH): significant degree of inhibition of egg hatching
egg hatching in the louse (B. ovis eggs; 10 or 1 minute exposure): completely inhibited
Number hatched in different replicates (B. ovis eggs; 1 minute exposure): Rep 1. 0; also recorded: Rep 2. 0
% Inhibition (B. ovis eggs; 1 minute exposure): 100%
Number unhatched (B. ovis eggs; 1 minute exposure): 10
Number hatched in different replicates (B. ovis eggs; 10 minute exposure): Rep 1. 0; also recorded: Rep 2. 0
% Inhibition (B. ovis eggs; 10 minute exposure): 100%
Number unhatched (B. ovis eggs; 10 minute exposure): 10
